Source: patent EP0326329B1, “Quinazoline derivatives useful as insecticides” (Dow AgroSciences LLC, priority 1988, dated 1989)

What was measured:
Format in all cases: in vivo
[1] = tested on: southern armyworm (Spodopetra eridania Cramer); experiment: Mite/insect screen, sprayed squash leaves (SAW); conditions: percent mortality; for mortality at 200 ppm / mortality at 400 ppm: Spodoptera eridania, read-out: SAW RESULTS %
Procedure, shortened: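 Acetone/alcohol (50:50) + emulsifier blends 23 g/L and 13 g/L; water dilution to test concs. Spray both leaf surfaces to runoff, dry 1 h. For armyworm, 2 excised uninfested leaves into Petri dish with larvae. Readout: % mortality, phytotoxicity.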

[2] = tested on: melon aphids (Aphis gossypii Glover); experiment: Mite/insect screen, sprayed squash cotyledons (MA); conditions: percent mortality; for mortality at 200 ppm / mortality at 400 ppm: Aphis gossypii, read-out: MA RESULTS %
Procedure, shortened: (§1)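 Compounds dissolved in acetone/alcohol with TOXIMUL R/S emulsifiers, diluted with water to test concentrations, and sprayed to runoff on both leaf surfaces at 10 psi, then dried 1 h. Excised treated squash leaves given southern armyworm larvae; aphid and spider mite tests on sprayed squash cotyledons. Percent mortality and phytotoxicity scored after standard exposure.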

[3] = tested on: Pyricularia oryzae (rice blast); conditions: disease control rating, foliar spray, host rice; 400 ppm (+++ at 100 ppm)
[4] = tested on: Pseudoperonospora cubensis (downy mildew); experiment: Greenhouse Test 1, foliar spray fungicide screen (DOWN MDEW), host squash; conditions: disease control rating, 400 ppm (+++ at 100 ppm)
[5] = tested on: Southern corn rootworm (Diabrotica undecimpuctata howardi Barber); experiment: Mite/insect screen, soil treatment (CRW); conditions: percent mortality, soil treatment; for mortality at 12 ppm / mortality at 24 ppm: Diabrotica, read-out: CRW RESULTS %
Procedure, shortened: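 Five 2–3 instar larvae were placed on dry sandy soil with a presoaked corn seed after the soil had received 1 mL of compound solution and dried 6–12 h; cups were kept capped at 23°C. Mortality (%) and phytotoxicity were read after standard exposure. Formulation: acetone/alcohol with emulsifiers, water-diluted.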

[6] = tested on: Puccinia recondita tritici (leaf rust); experiment: Greenhouse Test 1, foliar spray fungicide screen (LEAF RUST), host wheat; conditions: disease control rating, 400 ppm (+++ at 100 ppm)
[7] = tested on: Botrytis cinerea (gray mold); experiment: Greenhouse Test 1, foliar spray fungicide screen (GRAY MOLD), host grape berries; conditions: disease control rating, 400 ppm (+++ at 100 ppm)
[8] = tested on: Erysiphe graminis tritici (powdery mildew); experiment: Greenhouse Test 1, foliar spray fungicide screen (POWD MDEW), host wheat; conditions: disease control rating, 400 ppm (+++ at 100 ppm)
[9] = tested on: Twospotted spider mites (Tetranychus urticae Koch); experiment: Mite/insect screen, sprayed squash cotyledons (SM); conditions: percent mortality; for mortality at 200 ppm / mortality at 400 ppm: Tetranychus urticae, read-out: SM RESULTS %
Procedure, shortened: as §1

SMILES	mortality at 200 ppm ([1]; spray rate 200 ppm) [%]	mortality at 400 ppm ([1]; spray rate 400 ppm) [%]	mortality at 200 ppm ([2]; spray rate 200 ppm) [%]	mortality at 400 ppm ([2]; spray rate 400 ppm) [%]	RICE BLAST [3]	DOWN MDEW [4]	mortality at 12 ppm ([5]; CRW rate 12.00 ppm) [%]	mortality at 24 ppm ([5]; CRW rate 24.00 ppm) [%]	LEAF RUST [6]	GRAY MOLD [7]	POWD MDEW [8]	mortality at 200 ppm ([9]; spray rate 200 ppm) [%]	mortality at 400 ppm ([9]; spray rate 400 ppm) [%]	further results
Fc1cccc2c(NCCc3ccc(Cl)cc3)ncnc12 [Example 78, 8-fluoro-N-[2-(4-chlorophenyl)ethyl]-4-quinazolinamine]	100	80	0	0	+++ (+++ = 90-100% control at 100 ppm)	+++ (+++ = 90-100% control at 100 ppm)	0	100	+++ (+++ = 90-100% control at 100 ppm)	- (- = 0-19% control at 400 ppm)	+ (+ = 20-89% control at 400 ppm)	0	0	
CC(C)c1ccc(CCNc2ncnc3ccc(Br)cc23)cc1 [Example 79, 6-bromo-N-[2-[4-(i-propyl)phenyl]ethyl]-4-quinazolinamine]	0	0	50	0	+++ (+++ = 90-100% control at 100 ppm)	+++ (+++ = 90-100% control at 100 ppm)	0	0	++ (++ = 90-100% control at 400 ppm)	- (- = 0-19% control at 400 ppm)	+ (+ = 20-89% control at 400 ppm)	50	0	
c1ccc2cc(CCOc3ncnc4ccccc34)ccc2c1 [Example 80, 4-[2-(2-naphthyl)ethoxy]quinazoline]		0		100	+++ (+++ = 90-100% control at 100 ppm)	+++ (+++ = 90-100% control at 100 ppm)		100	+++ (+++ = 90-100% control at 100 ppm)	- (- = 0-19% control at 400 ppm)	+++ (+++ = 90-100% control at 100 ppm)		100	
CC(C)c1ccc(CCOc2ncnc3ccccc23)cc1 [Example 88, 4-[2-[4-(i-propyl)phenyl]ethoxy]quinazoline]	0	100	100	0	+++ (+++ = 90-100% control at 100 ppm)	+++ (+++ = 90-100% control at 100 ppm)	0	0	+++ (+++ = 90-100% control at 100 ppm)	- (- = 0-19% control at 400 ppm)	+++ (+++ = 90-100% control at 100 ppm)	100	0	
Clc1ccc2ncnc(NCCc3ccc(-c4ccccc4)cc3)c2c1 [Example 90, 6-chloro-N-[2-(1,1'-biphenyl)-4-ylethyl]-4-quinazolinamine]	0	100	80	0	+ (+ = 20-89% control at 400 ppm)	+++ (+++ = 90-100% control at 100 ppm)	0	0	+ (+ = 20-89% control at 400 ppm)	- (- = 0-19% control at 400 ppm)	+ (+ = 20-89% control at 400 ppm)	100	0	
c1ccc2c(CCOc3ncnc4ccccc34)cccc2c1 [Example 91, 4-[2-(1-naphthyl)ethoxy]quinazoline]	0	0	0	0	++ (++ = 90-100% control at 400 ppm)	++ (++ = 90-100% control at 400 ppm)	0	0	+ (+ = 20-89% control at 400 ppm)	- (- = 0-19% control at 400 ppm)	+ (+ = 20-89% control at 400 ppm)	0	0	
Fc1cccc2c(OCCc3ccc(-c4ccccc4)cc3)ncnc12 [Example 93, 8-fluoro-4-[2-(1,1'-biphenyl)-4-ylethoxy]quinazoline]					+++ (+++ = 90-100% control at 100 ppm)	+++ (+++ = 90-100% control at 100 ppm)			+++ (+++ = 90-100% control at 100 ppm)	- (- = 0-19% control at 400 ppm)	+++ (+++ = 90-100% control at 100 ppm)			SAW RESULTS % ([1]; spray rate 200 ppm): 100%; SAW RESULTS % ([1]; spray rate 400 ppm): 100%; MA RESULTS % ([2]; spray rate 200 ppm): 80%; MA RESULTS % ([2]; spray rate 400 ppm): 0%; CRW RESULTS % ([5]; CRW rate 12.00 ppm): 0%; CRW RESULTS % ([5]; CRW rate 24.00 ppm): 0%; SM RESULTS % ([9]; spray rate 200 ppm): 80%; SM RESULTS % ([9]; spray rate 400 ppm): 0%
